Results as given in patent publication US20250235543A1, “MODIFIED PROTEINS AND PROTEIN DEGRADERS” (Cullgen (Shanghai), Inc., priority 2021, published 2025).
Read-outs that look alike come from different tables or passages of the source.

Assays:
[1] = system: cyclin D1; experiment: Cyclin D1 percentage degradation in Calu-1 cells (immunoblotting); assay type: cell-based; conditions: 16 hours
How it was run: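 Cyclin D1 degradation was assessed by western blot. Clarified lysates, obtained by RIPA lysis with inhibitors and centrifugation at 13,000 rpm, were normalized by BCA protein assay and separated by SDS-PAGE. Bands were detected with Western ECL Substrate on a Bio-Rad ChemiDoc MP Imaging system and quantified in Image Lab software to derive percentage degradation.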

[2] = target: T1, CDK4 (Homo sapiens, UniProt P11802); experiment: CDK4 percentage degradation in Calu-1 cells (immunoblotting); assay type: cell-based; conditions: for inhibition at 0.2 µM: read-out: CDK4 Degradation (200 nM); for inhibition at 10 µM: read-out: CDK4 Degradation (10 μM)
T1 construct: endogenous in cells; host or cells: Calu-1
T1 sequence (P11802 2-303 limits assumed): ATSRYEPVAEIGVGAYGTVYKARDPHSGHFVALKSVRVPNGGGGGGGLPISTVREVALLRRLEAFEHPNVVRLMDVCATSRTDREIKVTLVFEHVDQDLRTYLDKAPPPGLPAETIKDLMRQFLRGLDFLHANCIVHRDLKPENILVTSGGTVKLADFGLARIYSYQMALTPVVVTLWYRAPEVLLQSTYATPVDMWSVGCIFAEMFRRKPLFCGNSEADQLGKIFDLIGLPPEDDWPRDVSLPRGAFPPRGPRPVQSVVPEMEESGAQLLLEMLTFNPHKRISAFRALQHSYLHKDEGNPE
T1 sequence (P24385 whole entry partner): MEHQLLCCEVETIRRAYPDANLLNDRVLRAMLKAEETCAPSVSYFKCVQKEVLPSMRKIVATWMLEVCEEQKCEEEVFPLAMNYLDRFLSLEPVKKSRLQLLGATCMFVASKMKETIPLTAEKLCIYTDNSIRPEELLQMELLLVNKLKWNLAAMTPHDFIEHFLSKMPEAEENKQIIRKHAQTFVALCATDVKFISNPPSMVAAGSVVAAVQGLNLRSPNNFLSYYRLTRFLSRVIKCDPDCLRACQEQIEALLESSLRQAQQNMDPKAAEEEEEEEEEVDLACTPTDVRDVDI
T1 sequence (Q16531 2-1140 limits assumed, further chain): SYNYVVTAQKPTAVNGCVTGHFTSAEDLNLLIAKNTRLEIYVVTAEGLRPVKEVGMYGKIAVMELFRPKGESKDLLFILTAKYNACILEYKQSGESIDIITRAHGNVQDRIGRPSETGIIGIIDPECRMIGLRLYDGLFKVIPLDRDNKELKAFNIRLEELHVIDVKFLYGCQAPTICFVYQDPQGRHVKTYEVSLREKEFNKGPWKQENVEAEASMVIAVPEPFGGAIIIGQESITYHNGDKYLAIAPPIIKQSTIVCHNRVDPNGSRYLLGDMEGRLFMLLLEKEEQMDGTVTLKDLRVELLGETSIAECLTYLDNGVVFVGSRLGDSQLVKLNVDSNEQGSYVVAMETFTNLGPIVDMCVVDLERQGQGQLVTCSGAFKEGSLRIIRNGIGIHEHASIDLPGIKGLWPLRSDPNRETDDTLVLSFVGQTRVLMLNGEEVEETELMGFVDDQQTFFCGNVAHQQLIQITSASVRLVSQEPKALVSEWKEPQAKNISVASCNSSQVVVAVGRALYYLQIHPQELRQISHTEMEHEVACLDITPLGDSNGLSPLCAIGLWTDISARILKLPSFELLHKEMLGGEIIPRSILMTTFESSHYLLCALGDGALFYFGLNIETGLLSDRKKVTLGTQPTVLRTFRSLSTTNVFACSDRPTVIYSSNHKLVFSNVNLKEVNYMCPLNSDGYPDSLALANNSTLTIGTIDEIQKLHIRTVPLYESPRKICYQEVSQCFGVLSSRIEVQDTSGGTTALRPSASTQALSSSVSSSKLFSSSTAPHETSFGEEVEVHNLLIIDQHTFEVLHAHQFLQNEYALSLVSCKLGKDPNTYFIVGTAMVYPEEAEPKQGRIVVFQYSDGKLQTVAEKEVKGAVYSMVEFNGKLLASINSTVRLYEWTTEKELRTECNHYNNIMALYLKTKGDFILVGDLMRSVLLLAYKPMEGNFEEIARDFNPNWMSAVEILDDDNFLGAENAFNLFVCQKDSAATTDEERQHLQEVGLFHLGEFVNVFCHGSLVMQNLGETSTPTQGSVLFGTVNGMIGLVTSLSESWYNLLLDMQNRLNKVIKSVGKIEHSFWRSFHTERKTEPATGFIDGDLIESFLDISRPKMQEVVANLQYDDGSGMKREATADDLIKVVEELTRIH
How it was run: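 CDK4 degradation was measured by immunoblotting. Cells were washed in cold PBS and lysed in RIPA buffer with inhibitors for 30 min at 4° C., then spun at 13,000 rpm to clear. After BCA protein determination, lysates were heated at 99° C. for 5 min in Laemmli buffer, resolved on SDS-PAGE, imaged on a ChemiDoc MP with ECL substrate, and band intensities quantified.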

inhibition at 0.2 µM ([2]; Calu-1 cells, 200 nM, 16 hours)	inhibition at 10 µM ([2]; Calu-1 cells, 16 hours)	SMILES	CyclinD1 Degradation (200 nM) [1]	CyclinD1 Degradation (10 μM) [1]	inhibition at 0.2 µM ([2]; Calu-1, 16 h)
< 30%		CC(=O)c1c(C)c2cnc(Nc3ccc(N4CCN(CC(=O)NCCOCCOCCOCCNC(=O)c5ccc(C(=O)Nc6ncc(C)s6)c(C)c5)CC4)cn3)nc2n(C2CCCC2)c1=O [CPD-011, N^4-(1-(4-(6-((6-Acetyl-8-cyclopentyl-5-methyl-7-oxo-7,8-dihydropyrido[2,3-d]pyrimidin-2-yl)amino)pyridin-3-yl)piperazin-1-yl)-2-oxo-6,9,12-trioxa-3-azatetradecan-14-yl)-2-methyl-N^1-(5-methylthiazol-2-yl)terephthalamide]	D (protein percentage degradation <30%)		
< 30%		CC(=O)c1c(C)c2cnc(Nc3ccc(N4CCN(CC(=O)NCCOCCOCCOCCOCCOCCNc5ccc(C(=O)Nc6ncc(-c7ccccc7)s6)c(C)c5)CC4)cn3)nc2n(C2CCCC2)c1=O [CPD-001, 4-((1-(4-(6-((6-Acetyl-8-cyclopentyl-5-methyl-7-oxo-7,8-dihydropyrido[2,3-d]pyrimidin-2-yl)amino)pyridin-3-yl)piperazin-1-yl)-2-oxo-6,9,12,15,18-pentaoxa-3-azaicosan-20-yl)amino)-2-methyl-N-(5-phenylthiazol-2-yl)benzamide]	D (protein percentage degradation <30%)		
< 30%		CC(=O)c1c(C)c2cnc(Nc3ccc(N4CCN(CC(=O)NCCOCCOCCC(=O)Nc5ccccc5C(=O)Nc5ncc(C)cn5)CC4)cn3)nc2n(C2CCCC2)c1=O [CPD-055, 2-(3-(2-(2-(2-(4-(6-((6-Acetyl-8-cyclopentyl-5-methyl-7-oxo-7,8-dihydropyrido[2,3-d]pyrimidin-2-yl)amino)pyridin-3-yl)piperazin-1-yl)acetamido)ethoxy)ethoxy)propanamido)-N-(5-methylpyrimidin-2-yl)benzamide]	D (protein percentage degradation <30%)		
50 to 80%		CCCCNc1ccc(C(=O)Nc2nc(C)c(C)s2)c(NC(=O)CCOCCOCCNC(=O)CN2CCN(c3ccc(Nc4ncc5c(C)c(C(C)=O)c(=O)n(C6CCCC6)c5n4)nc3)CC2)c1 [CPD-168, 2-(3-(2-(2-(2-(4-(6-((6-Acetyl-8-cyclopentyl-5-methyl-7-oxo-7,8-dihydropyrido[2,3-d]pyrimidin-2-yl)amino)pyridin-3-yl)piperazin-1-yl)acetamido)ethoxy)ethoxy)propanamido)-4-(butylamino)-N-(4,5-dimethylthiazol-2-yl)benzamide]	A (protein percentage degradation >=80%)		
	30 to 50%	Cc1nc(NC(=O)c2ccccc2NC(=O)CCOCCOCCOCCOCCOCCOCCNC(=O)CN2CCN(c3ccc(Nc4ncc5cc(C(=O)N(C)C)n(C6CCCC6)c5n4)nc3)CC2)sc1C [CPD-299, 7-Cyclopentyl-2-((5-(4-(24-((2-((4,5-dimethylthiazol-2-yl)carbamoyl)phenyl)amino)-2,24-dioxo-6,9,12,15,18,21-hexaoxa-3-azatetracosyl)piperazin-1-yl)pyridin-2-yl)amino)-N,N-dimethyl-7H-pyrrolo[2,3-d]pyrimidine-6-carboxamide]		B (protein percentage degradation < 80%, and >= 50%)	
50 to 80%		CC(=O)c1c(C)c2cnc(Nc3ccc(N4CCN(CC(=O)NCCOCCOCCOCCOCCC(=O)Nc5ccccc5C(=O)Nc5nc(C)c(C)s5)CC4)cn3)nc2n(C2CCCC2)c1=O [CPD-170, 2-(1-(4-(6-((6-Acetyl-8-cyclopentyl-5-methyl-7-oxo-7,8-dihydropyrido[2,3-d]pyrimidin-2-yl)amino)pyridin-3-yl)piperazin-1-yl)-2-oxo-6,9,12,15-tetraoxa-3-azaoctadecan-18-amido)-N-(4,5-dimethylthiazol-2-yl)benzamide]	A (protein percentage degradation >=80%)		
< 30%		CC(=O)c1c(C)c2cnc(Nc3ccc(N4CCN(CC(=O)NCCOCCOCCOCCOCCOCCNc5ccc(C(=O)Nc6ncc(C(F)(F)F)s6)c(C)c5)CC4)cn3)nc2n(C2CCCC2)c1=O [CPD-003, 4-((1-(4-(6-((6-Acetyl-8-cyclopentyl-5-methyl-7-oxo-7,8-dihydropyrido[2,3-d]pyrimidin-2-yl)amino)pyridin-3-yl)piperazin-1-yl)-2-oxo-6,9,12,15,18-pentaoxa-3-azaicosan-20-yl)amino)-2-methyl-N-(5-(trifluoromethyl)thiazol-2-yl)benzamide]	D (protein percentage degradation <30%)		
50 to 80%		CC(=O)c1c(C)c2cnc(Nc3ccc(N4CCN(CC(=O)NCCOCCOCCNc5ccc(C)c(C(=O)Nc6nc(C)c(C)s6)c5)CC4)cn3)nc2n(C2CCCC2)c1=O [CPD-089, 5-((2-(2-(2-(2-(4-(6-((6-Acetyl-8-cyclopentyl-5-methyl-7-oxo-7,8-dihydropyrido[2,3-d]pyrimidin-2-yl)amino)pyridin-3-yl)piperazin-1-yl)acetamido)ethoxy)ethoxy)ethyl)amino)-N-(4,5-dimethylthiazol-2-yl)-2-methylbenzamide]	B (protein percentage degradation <80%, and >=50%)		

Continued, molecule first:

SMILES	inhibition at 0.2 µM ([2]; Calu-1 cells, 200 nM, 16 hours)	inhibition at 10 µM ([2]; Calu-1 cells, 16 hours)	CyclinD1 Degradation (200 nM) [1]	CyclinD1 Degradation (10 μM) [1]	inhibition at 0.2 µM ([2]; Calu-1, 16 h)
Cc1nc(NC(=O)c2ccccc2NC(=O)CCOCCOCCOCCOCCOCCNC(=O)CN2CCN(c3ccc(Nc4ncc5cc6n(c5n4)C4(CCCCC4)CNC6=O)nc3)CC2)sc1C [CPD-326, N-(4,5-Dimethylthiazol-2-yl)-2-(2-oxo-1-(4-(6-((6′-oxo-7′,8′-dihydro-6′H-spiro[cyclohexane-1,9′-pyrazino[1′,2′:1,5]pyrrolo[2,3-d]pyrimidin]-2′-yl)amino)pyridin-3-yl)piperazin-1-yl)-6,9,12,15,18-pentaoxa-3-azahenicosan-21-amido)benzamide]		50 to 80%		A (protein percentage degradation >= 80%)	
CC(=O)c1c(C)c2cnc(Nc3ccc(N4CCN(C(=O)CCNc5ccc(C)c(C(=O)Nc6nc(C)c(C)s6)c5)CC4)cn3)nc2n(C2CCCC2)c1=O [CPD-091, 5-((3-(4-(6-((6-Acetyl-8-cyclopentyl-5-methyl-7-oxo-7,8-dihydropyrido[2,3-d]pyrimidin-2-yl)amino)pyridin-3-yl)piperazin-1-yl)-3-oxopropyl)amino)-N-(4,5-dimethylthiazol-2-yl)-2-methylbenzamide]			D (protein percentage degradation <30%)		< 30%
CC(=O)c1c(C)c2cnc(Nc3ccc(N4CCN(C(=O)CCCNc5ccc(C)c(C(=O)Nc6nc(C)c(C)s6)c5)CC4)cn3)nc2n(C2CCCC2)c1=O [CPD-165, 5-((4-(4-(6-((6-Acetyl-8-cyclopentyl-5-methyl-7-oxo-7,8-dihydropyrido[2,3-d]pyrimidin-2-yl)amino)pyridin-3-yl)piperazin-1-yl)-4-oxobutyl)amino)-N-(4,5-dimethylthiazol-2-yl)-2-methylbenzamide]			D (protein percentage degradation <30%)		< 30%
Cc1nc(NC(=O)c2ccccc2NC(=O)CCOCCOCCOCCOCCNC(=O)CN2CCN(c3ccc(Nc4ncc(F)c(-c5cc(F)c6nc(C)n(C(C)C)c6c5)n4)nc3)CC2)sc1C [CPD-311, N-(4,5-Dimethylthiazol-2-yl)-2-(1-(4-(6-((5-fluoro-4-(4-fluoro-1-isopropyl-2-methyl-1H-benzo[d]imidazol-6-yl)pyrimidin-2-yl)amino)pyridin-3-yl)piperazin-1-yl)-2-oxo-6,9,12,15-tetraoxa-3-azaoctadecan-18-amido)benzamide]		30 to 50%		A (protein percentage degradation >= 80%)	
CC(=O)c1c(C)c2cnc(Nc3ccc(N4CCN(CCCCCCCCCCCC(=O)Nc5ccccc5C(=O)Nc5nc(C)c(C)s5)CC4)cn3)nc2n(C2CCCC2)c1=O [CPD-177, 2-(12-(4-(6-((6-Acetyl-8-cyclopentyl-5-methyl-7-oxo-7,8-dihydropyrido[2,3-d]pyrimidin-2-yl)amino)pyridin-3-yl)piperazin-1-yl)dodecanamido)-N-(4,5-dimethylthiazol-2-yl)benzamide]			D (protein percentage degradation <30%)		< 30%
CC(=O)c1c(C)c2cnc(Nc3ccc(N4CCN(CC(=O)NCCOCCOCCC(=O)Nc5ccccc5C(=O)Nc5ncc(C)s5)CC4)cn3)nc2n(C2CCCC2)c1=O [CPD-051, 2-(3-(2-(2-(2-(4-(6-((6-Acetyl-8-cyclopentyl-5-methyl-7-oxo-7,8-dihydropyrido[2,3-d]pyrimidin-2-yl)amino)pyridin-3-yl)piperazin-1-yl)acetamido)ethoxy)ethoxy)propanamido)-N-(5-methylthiazol-2-yl)benzamide]	> 80%		A (protein percentage degradation >=80%)		
CC(=O)c1c(C)c2cnc(Nc3ccc(N4CCN(CCCCCCCCCCNc5cccc(C(=O)Nc6nc(C)c(C)s6)c5C)CC4)cn3)nc2n(C2CCCC2)c1=O [CPD-078, 3-((10-(4-(6-((6-Acetyl-8-cyclopentyl-5-methyl-7-oxo-7,8-dihydropyrido[2,3-d]pyrimidin-2-yl)amino)pyridin-3-yl)piperazin-1-yl)decyl)amino)-N-(4,5-dimethylthiazol-2-yl)-2-methylbenzamide]			D (protein percentage degradation <30%)		< 30%
CC(=O)c1c(C)c2cnc(Nc3ccc(N4CCN(CC(=O)NCCOCCOCCC(=O)Nc5ccccc5C(=O)Nc5cc(C)n(C)n5)CC4)cn3)nc2n(C2CCCC2)c1=O [CPD-052, 2-(3-(2-(2-(2-(4-(6-((6-Acetyl-8-cyclopentyl-5-methyl-7-oxo-7,8-dihydropyrido[2,3-d]pyrimidin-2-yl)amino)pyridin-3-yl)piperazin-1-yl)acetamido)ethoxy)ethoxy)propanamido)-N-(1,5-dimethyl-1H-pyrazol-3-yl)benzamide]	50 to 80%		A (protein percentage degradation >=80%)		
